Reference: ChEMBL document CHEMBL1133905, “Novel lipase-catalysed enantioselective deacetylation of (+/-)-5-acetoxy-3-(4-fluorophenyl)-2-phenylisoxazolidine” (2001)
Values after ≈ are worked out from the molar mass of the structure shown.

How the values were obtained:
[1] = tested on: Mycobacterium tuberculosis; test: Inhibition against Mycobacterium tuberculosis at 6.25 ug/mL; type: functional
[2] = tested on: Mycobacterium tuberculosis; test: Inhibition against Mycobacterium tuberculosis; type: functional

CC(=O)OC1CC(c2ccc(F)cc2)N(c2ccccc2)O1 (racemic)
inhibition at 6.25 µg/mL [1]: 78%
MIC [2]: 6.25 µg/mL (≈ 20.7 µM)
